# Measurements published in US7135468B2, “Antibacterial compounds” (Abbott Laboratories, priority 2004, dated 2006).
# Biological target: bacterial protein synthesis (S30 Streptococcus pneumoniae extract)
# Test: Translation assay, firefly luciferase reporter system with S30 Streptococcus pneumoniae extract
# Type: biochemical, Streptococcus pneumoniae ATCC 46919
# Settings: cell-free S30 extract from quinolone-susceptible S. pneumoniae ATCC 46919, luciferase mRNA; read-out: IC50, concentration causing 50% inhibition of bacterial protein synthesis
# Procedure: Bacterial protein synthesis inhibitory activity of representative compounds of this invention having formula (I) and the commercially-available antibacterials in TABLE 2 was determined by translation assays using the firefly luciferase reporter system described by Murray et al., (2001), “Staphylococcus aureus Cell Extract Transcription-Translation Assay: Firefly Luciferase Reporter System for Evaluating Protein Translation Inhibitors,” Antimicrob. Agents Chemother. 45(6): 1900–1904, but replacing the Staphylococcus aureus S30 extract described therein with S30 Streptococcus pneumoniae extract from quinolone-succeptable Streptococcus pneumoniae ATCC 46919, and replacing plasmid coding for the luciferase gene with mRNA (encoding produced by in an in vitro environment transcription from the plasmid pAS10rbs3) which encoded the luciferase gene with an upstream Streptococcus pneumoniae promoter and Shine-Dalgarno site.
compound,measurement,value
CC(=O)NC[C@H]1CN(c2ccc(N3CCOCC3)c(F)c2)C(=O)O1 [Linezolid],IC50,~3000 nM
